Reference: patent US20100247461A1, “ANTI-INFLAMMATORY COMPLEXES” (Signum Biosciences, Inc., priority 2009, published 2010)
Where two headings read alike, the source gives them in different places.

Columns and labels:
[1] = system: Propionibacterium acnes (strain ATCC 6919); test: Inhibition of Propionibacterium acnes growth; format: cell-based
Experimental: The assay for the inhibition of growth of Propionibacterium acnes bacteria is described elsewhere (Nakatsuji et al., J Invest Dermatol, 2009, 129: 2480-2488). In brief, the strain ATCC 6919 of P. acnes (American Type Culture Collection, Manassas, Va.) was cultured on Brucella agar (R01254, Remel, Lenexa, Kans.) supplemented with 5% (v/v) defibrinated sheep blood, vitamin K (5 mg/ml, Remel, Lenexa, Kans.), and hemin (50 mg/ml, Remel, Lenexa, Kans.), under an anaerobic condition using Gas-Pak (BD, Sparks, Md.) at 37° C. A single colony was inoculated in Reinforced Clostridium Medium (Oxford, Hampshire, England) and cultured at 37° C. under the anaerobic condition. Each of the inventive complexes—AFC-Sr, AFC-Ag and AFC-Zn as well as AFC were dissolved in 100% (v/v) DMSO. Samples of each inventive complex, AFC and a solution of benzoyl peroxide (“BPO”) were then each incubated with an inoculum of P. acnes at a concentration of 1×10^6 CFU per mL in Reinforced Clostridium Medium in a 96-well microplate (100 μL per well) under anaerobic conditions for 72 hours. Samples of each were tested at final concentrations per well of 0.25 μg/mL, 0.5 μg/mL, 1.0 μg/mL, 1.95 μg/mL, 3.9 μg/mL, 7.8 μg/mL, 15.625 μg/mL, 31.25 μg/mL, 62.5 μg/mL, 125 μg/mL, 250μg/mL, and 500 μg/mL. A control well received only 5% (v /v) of DMSO in place of a sample of an inventive complex. After 72 hours incubation under anaerobic conditions, the P. acnes cultures in the 96-well microplate were mixed well and then absorbance readings at 600 nm were taken to determine bacterial growth. […] Growth curves of P. acnes determined for BPO, AFC, AFC-Sr, AFC-Ag and AFC-Zn are depicted in FIG. 3.

[2] = complex and its solutions; compared with ordinary silver salts of carboxylic acids
[3] = system: TPA-treated mouse ears (edema, ear thickness); test: TPA mouse ear model of inflammation - edema inhibition; format: in vivo
Experimental: In brief, mice were sedated and their ears were treated with 1.2 μg/20 uL TPA (i.e., tetradecanoylphorbol-13-acetate). After 5 minutes, we dosed these TPA-treated ears with a single 8 μg/20 μL dose, a 2 μg/20 μL dose, or both doses, of provided complexes. After 24 hours, the mice were sacrificed and edema was measured by taking micrometer readings of each ear. […] These values were corrected for the thickness of normal, non TPA-treated mouse ears of littermate controls.

[4] = system: TPA-treated mouse ears (erythema, Δa* redness); test: TPA mouse ear model of inflammation - erythema inhibition; format: in vivo; conditions: topical, 24 hours
Experimental: The protocol for measuring erythema inhibition by provided complexes was developed in-house by utilizing the CR-400 chroma meter from Konica Minolta (2). This instrument was used to measure the Δa*redness value from 6 mm biopsy punches taken 24 hours post TPA/compound treatment as described in the edema inhibition section above. […] These values were corrected for the Δa* value of non TPA-treated mouse ears of littermate controls.

neutrophils = test: Inhibition of oxidative burst from neutrophils (fMLP-induced superoxide release); format: cell-based; conditions: reduction of superoxide formation, fMLP 0.2 μM, 0 to 100 μM compound; read-out: ED50 Respiratory Burst
Experimental: During inflammation, neutrophils produce and release superoxide ions, otherwise known as oxidative burst response, causing cytotoxicity. […] The superoxide release assay is based on published protocols (Goldstein et al. (1975). J. Clin. Invest. 56(5): 1155-63). Briefly, cells were pre-incubated for 10 min at 37° C. with a mixture of cytochrome c (75 μM final concentration), cytochalasin B (5 μg/ml) with or without superoxide dismutase (SOD) (10 μg/ml) and with or without AFC, AFC-Calcium complex, and AFC-Strontium complex (ranging from 0 to 100 μM). To initiate O2^− release, fMLP (0.2 μM) was added the cells are incubated for 10 min at 37° C. Samples were then placed on ice for 5 min and subsequently centrifuged at 3,000 rpm at 4° C. The supernatant was then analyzed by spectrophotometric measurement at 550 and 556.5 nm. The ED50 values for the reduction of superoxide formation, obtained with AFC, AFC-Calcium complex, and AFC-Strontium complex are depicted in Table 2.

[5] = system: MPO activity (neutrophil infiltration) in P. acnes-injected ear; test: P. acnes-induced mouse ear model of inflammation - MPO endpoint; format: in vivo; conditions: dose of 0.4 mg/20 μL
Experimental: The methods for a model of P. acnes-inflammation are described elsewhere (Nakatsuji et al., J Invest Dermatol, 2008, 128: 2451-2457).
The protocol for inducing inflammation using P. acnes bacterial challenge on the mouse ear was slightly modified from the method described previously (Natatsuji et al., 2008). Briefly, Swiss Webster (ICR, 6-8 weeks old) mouse ears were injected with living P. acnes culture intradermally. An amount of 20 μl aliquots of living P. acnes (ATCC 6919, 3×10^6 CFU) suspended in PBS was intradermally injected in the central portion of the ear. As a control, 20 μl of PBS was injected into control animals.
To assay for inhibition of dermal neutrophil infiltration by AFC complexes, a standard method was used (see Bradley et al., J Invest Dermatol, 1982,78: 206-209; Young et al., J Invest Dermatol, 1983, 80: 48-52; De Young et al, Agents Actions, 1989, 26: 335-41; and Rao et al., Inflammation, 1993, 17: 723-41). Briefly, 6mm biopsy punches taken from both compound-treated ears as well as non-treated control ears were homogenized in 400 μl of 0.5% hexadecyltrimethylammonium bromide in 50 mM potassium phosphate buffer (pH 6.0) using the Fast Prep 24 (MP Biomedicals, Solon, Ohio). Supernatants were assayed for MPO activity using a model EL 340 96-well plate reader (BioTek Instruments, Winooski, Vt.). The percent inhibition of neutrophil infiltration by each AFC complex was determined by comparing the average MPO levels in the presence and absence of these compounds. The percent inhibition of MPO was determined by taking the average MPO activity of compound-treated ears and dividing it by the average MPO activity of 12 ears that only received the P. acnes challenge and subtracting that value from 100%. These values were corrected for the MPO activity of normal, non P. acnes-treated mouse ears of littermate controls. Summary of MPO activity ranges determined from an MPO activity assay for dexamethasone (administered at a dose of 1.6 mg/20 μL), clobetasol (administered at a dose of 0.1 mg/20 μL), salicylic acid (administered at a dose of 0.4 mg/20 μL), AFC (administered at a dose of 0.4 mg/20 μL), AFC-Strontium complex (administered at a dose of 0.4 mg/20 μL) and SFC-disodium are presented in Table 4. “+” indicates a range of 0-20%, “++” indicates a range of 20-40%, and “+++” indicates >40% inhibition.

[6] = system: MPO (myeloperoxidase), neutrophil marker; test: TPA mouse ear model of inflammation - MPO inhibition (dermal neutrophil infiltration); format: in vivo
Experimental: Briefly, we homogenized 6mm biopsy punches taken from both compound-treated ears as well as TPA-treated and non-treated control groups. We quantitated the levels of MPO by a colorimetric reaction that was measured spectrophotometrically. The percent inhibition of neutrophil infiltration by each complex was determined by comparing the average MPO levels in the presence and absence of these compounds. The calculation for percent inhibition of MPO was determined similar to that as described for calculating the percent edema inhibition, see the Edema Inhibition protocol, supra.

[7] = system: TPA-treated mouse ears (edema, ear thickness); test: TPA mouse ear model of inflammation - edema inhibition; format: in vivo; conditions: topical, 24 hours

| SMILES | IC50 (inhibition of P. acnes growth) [1] | light and air stability [2] | ED50 for edema inhibition ([3]; TPA-treated mouse ear, topical) | decrease of edema compared with another complex or AFC alone ([3]; mouse ear inflammation assay) | IC50 (inhibition of P. acnes growth) ([1]; 72 hours, anaerobic, absorbance 600 nm, 1×10^6 CFU per mL) | % Erythema Inhibition in the Mouse Ear Inflammation Assay (4% concentration) [4] | EC50 (neutrophils) | MPO % Inhibition [5] | ED50 in the MPO assay ([6]; TPA-treated mouse ear, several concentrations, inhibitory activity curves) | ED50 value for inhibiting neutrophil infiltration ([6]; TPA-treated mouse ear, topical) | % MPO Inhibition in the Mouse Ear Inflammation Assay (4% concentration) ([6]; TPA-treated mouse ear, topical, 4% concentration, 24 hours) | MPO inhibition compared with another complex or AFC alone ([6]; mouse ear inflammation assay) | fold lower ED50 value for inhibiting neutrophil infiltration than the AFC oil ([6]; versus AFC oil) | % Edema Inhibition in the Mouse Ear Inflammation Assay (4% concentration) [7] |
| --- | --- | --- | --- | --- | --- | --- | --- | --- | --- | --- | --- | --- | --- | --- |
| CC(=O)N[C@@H](CSC/C=C(\C)CC/C=C(\C)CCC=C(C)C)C(=O)[O-].[Ag+] [AFC-Silver complex, Silver (R)-2-acetamido-3-((2E,6E)-3,7,11-trimethyldodeca-2,6,10-trienylthio)propanoate] | 16.9 µg/mL | enhanced light and air stability | – | – | – | – | – | – | – | – | – | – | – | – |
| CC(=O)N[C@@H](CSC/C=C(\C)CC/C=C(\C)CCC=C(C)C)C(=O)O [AFC-strontium complex, Strontium (R)-2-acetamido-3-((2E,6E)-3,7,11-trimethyldodeca-2,6,10-trienylthio)propanoate] | – | – | 21700 µM | more effective at decreasing edema than the calcium complex | 12.6 µg/mL | +++ (“+++” indicates >40% inhibition of erythema) | 35.6 µM | +++ (“+++” indicates >40% inhibition) | 315 μg/ear | 5020 µM | +++ (“+++” indicates >80% inhibition of MPO) | improved MPO inhibition than the calcium complex | ~8 fold | +++ (“+++” indicates >50% inhibition of edema) |
